Reference: patent US8614182B2 (Jiangsu Hansoh Pharmaceuticals Co., Ltd., priority 2009, dated 2013)

Biological target: T1, Glucagon-like peptide-1 receptor (GLP1R) (Homo sapiens, UniProt P43220)
T1 construct: expressed in transfected cells; host or cells: HEK293
Experiment: Agonist activity on GLP1R, cAMP response element luciferase reporter gene in HEK293 cells
Type: cell-based
Conditions: HEK293 cells stably transfected with GLP1R and pCRE-Luc, 5 hours incubation; read-out: Maximum reaction rate
Description: GLP1R is a receptor coupled with Gs protein, of which the binding with the agonists will result in an increase of intracellular cAMP concentration. In the present experiment, GLP1R and the luciferase reporter gene plasmid regulated by cAMP response elements are co-transfected into HEK293 cells. When the compound binds to the receptor and activates the receptors, the expression of the luciferase will increase. The activation status of the compound to GLP1R can be learned by testing the activity of the luciferase.
2. The compounds or positive drugs having a certain concentration gradient were added (3 wells per concentration) and incubated at 37° C. for 5 hours. The negative control was solvent DMSO.
3. 50 μl culture medium was taken from each well, and 50 μl of the luciferase substrate were added and vortexed for 10 minutes.
4. 80 μl reaction solution was taken and transferred to a white 96 well plate, then detected on the Invision microplate reader (enzyme-labelling measuring instrument).

T1 sequence (P43220 24-463, species assumed): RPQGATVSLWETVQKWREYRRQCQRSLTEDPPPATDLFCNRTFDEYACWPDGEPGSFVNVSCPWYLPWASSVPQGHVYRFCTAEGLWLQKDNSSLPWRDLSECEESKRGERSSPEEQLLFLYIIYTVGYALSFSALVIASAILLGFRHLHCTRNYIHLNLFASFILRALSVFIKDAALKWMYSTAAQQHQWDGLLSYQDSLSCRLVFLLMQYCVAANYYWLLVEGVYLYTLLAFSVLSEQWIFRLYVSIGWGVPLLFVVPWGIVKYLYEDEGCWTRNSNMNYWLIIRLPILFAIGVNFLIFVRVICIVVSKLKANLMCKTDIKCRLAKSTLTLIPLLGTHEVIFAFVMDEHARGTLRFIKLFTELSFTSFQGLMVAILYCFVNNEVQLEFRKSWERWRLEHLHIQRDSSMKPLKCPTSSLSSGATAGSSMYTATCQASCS

Emax [%] | SMILES
89.1 | CCCCCCCCCCCCCCCC(=O)N[C@@H](CCCCNC(=O)[C@H](CO)NC(=O)[C@@H]1CCCN1C(=O)[C@@H]1CCCN1C(=O)[C@@H]1CCCN1C(=O)CNC(=O)CNC(=O)[C@H](CCCCN)NC(=O)[C@H](CCCCN)NC(=O)CNC(=O)[C@H](CCCNC(=N)N)NC(=O)CNC(=O)[C@H](CCCCN)NC(=O)[C@@H](NC(=O)[C@H](CC(C)C)NC(=O)[C@H](Cc1c[nH]c2ccccc12)NC(=O)[C@@H](NC(=O)[C@@H](NC(=O)[C@H](Cc1ccccc1)NC(=O)[C@H](CCC(=O)O)NC(=O)[C@H](C)NC(=O)[C@H](C)NC(=O)[C@H](CCC(N)=O)NC(=O)CNC(=O)[C@H](CCC(=O)O)NC(=O)[C@H](CC(C)C)NC(=O)[C@H](Cc1ccc(O)cc1)NC(=O)[C@H](CO)NC(=O)[C@H](CO)NC(=O)[C@@H](NC(=O)[C@H](CC(=O)O)NC(=O)[C@H](CO)NC(=O)[C@@H](NC(=O)[C@H](Cc1ccccc1)NC(=O)[C@@H](NC(=O)CNC(=O)[C@H](CCC(=O)O)NC(=O)[C@H](C)NC(=O)[C@@H](N)Cc1c[nH]cn1)[C@@H](C)O)[C@@H](C)O)C(C)C)[C@@H](C)CC)C(C)C)C(C)C)C(=O)O [HS-20005]
87 | CCCCCCCCCCCCCCCC(=O)N[C@@H](CCCCNC(=O)[C@H](CO)NC(=O)[C@@H]1CCCN1C(=O)[C@@H]1CCCN1C(=O)[C@@H]1CCCN1C(=O)CNC(=O)CNC(=O)[C@H](CCCCN)NC(=O)[C@H](CCCCN)NC(=O)CNC(=O)[C@H](CCCNC(=N)N)NC(=O)CNC(=O)[C@H](CCCCN)NC(=O)[C@@H](NC(=O)[C@H](CC(C)C)NC(=O)[C@H](Cc1c[nH]c2ccccc12)NC(=O)[C@@H](NC(=O)[C@@H](NC(=O)[C@H](Cc1ccccc1)NC(=O)[C@H](CCC(=O)O)NC(=O)[C@H](C)NC(=O)[C@H](C)NC(=O)[C@H](CCC(N)=O)NC(=O)[C@H](CCC(=O)O)NC(=O)[C@H](CCC(=O)O)NC(=O)[C@H](CC(C)C)NC(=O)[C@H](Cc1ccc(O)cc1)NC(=O)[C@H](CO)NC(=O)[C@H](CO)NC(=O)[C@@H](NC(=O)[C@H](CC(=O)O)NC(=O)[C@H](CO)NC(=O)[C@@H](NC(=O)[C@H](Cc1ccccc1)NC(=O)[C@@H](NC(=O)CNC(=O)[C@H](CCC(=O)O)NC(=O)[C@H](C)NC(=O)[C@@H](N)Cc1c[nH]cn1)[C@@H](C)O)[C@@H](C)O)C(C)C)[C@@H](C)CC)C(C)C)C(C)C)C(=O)O [HS-20007]
